In ChEMBL document CHEMBL2021794, “Synthesis, σ₁, σ₂-receptors binding affinity and antiproliferative action of new C1-substituted adamantanes” (Bioorg Med Chem, 2012):

Tests used:
Type in all cases: functional
IGROV-1 = assay: Induction of apoptosis in human IGROV1 cells assessed as healthy cells at 0.5 uM after 24 hrs by Annexin V/7-AAD staining based flow cytometry (reference value: 86%)
H69AR = assay: Growth inhibition of human H69AR cells after 48 hrs by SRB assay
BXPC-3 = assay: Induction of apoptosis in human BxPC3 cells assessed as late apoptotic cells at 5 uM after 24 hrs by Annexin V/7-AAD staining based flow cytometry (reference value: 9%)

For `CN1CCN(c2ccc(C(c3ccccc3)C34CC5CC(CC(C5)C3)C4)cc2)CC1` (stereo not given), the Activity (IGROV-1) was 89%, the GI50 (H69AR) was 6.04 µM and the TGI (H69AR) was 18.4 µM. The CC50 (H69AR; read-out: LC50 (the source's name)) was 90.5 µM and the Activity (BXPC-3) was 17%.
